Measured values: the supplement of paper PMC10307832

Tests used:
Assay in all cases: relative viability (nuclei count vs DMSO), 5 days (fraction); higher = more cells survive
Palbociclib + Bortezomib = compound: CC(=O)c1c(C)c2cnc(Nc3ccc(N4CCNCC4)cn3)nc2n(C2CCCC2)c1=O [Palbociclib] + CC(C)C[C@H](NC(=O)[C@H](Cc1ccccc1)NC(=O)c1cnccn1)B(O)O [Bortezomib] (partner 0.002 µM)
Summary of the method: (§1)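 After 5 days of treatment, lung cancer cells in 1536-well plates were fixed and stained in a single step (final 0.05% Triton X-100, 1% formaldehyde, 1 ug/ml Hoechst) and their nuclei counted on 4× images. Treatment had been applied by pin tool the day after seeding as one drug alone or as a fixed anchor-drug dose with five library-drug doses (not always all listed) in √10 steps. Relative viability is the nuclei count of treated wells divided by that of vehicle wells, and values are medians of duplicate plates.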

Palbociclib + Crizotinib = compound: CC(=O)c1c(C)c2cnc(Nc3ccc(N4CCNCC4)cn3)nc2n(C2CCCC2)c1=O [Palbociclib] + C[C@@H](Oc1cc(-c2cnn(C3CCNCC3)c2)cnc1N)c1c(Cl)ccc(F)c1Cl [Crizotinib] (partner 1 µM)
Summary of the method: as §1

Palbociclib + Pictilisib = compound: CC(=O)c1c(C)c2cnc(Nc3ccc(N4CCNCC4)cn3)nc2n(C2CCCC2)c1=O [Palbociclib] + CS(=O)(=O)N1CCN(Cc2cc3nc(-c4cccc5[nH]ncc45)nc(N4CCOCC4)c3s2)CC1 [Pictilisib] (partner 1 µM)
Summary of the method: as §1

Palbociclib + Alpelisib = compound: CC(=O)c1c(C)c2cnc(Nc3ccc(N4CCNCC4)cn3)nc2n(C2CCCC2)c1=O [Palbociclib] + Cc1nc(NC(=O)N2CCC[C@H]2C(N)=O)sc1-c1ccnc(C(C)(C)C(F)(F)F)c1 [Alpelisib] (partner 2 µM)
Summary of the method: as §1

| Cell Line | relative viability (Palbociclib + Bortezomib; first compound 0.01 µM) | relative viability (Palbociclib + Bortezomib; first compound 0.03162 µM) | relative viability (Palbociclib + Bortezomib; first compound 0.1 µM) | relative viability (Palbociclib + Bortezomib; first compound 0.3162 µM) | relative viability (Palbociclib + Bortezomib; first compound 1 µM) | relative viability (Palbociclib + Crizotinib; first compound 0.01 µM) | relative viability (Palbociclib + Crizotinib; first compound 0.03162 µM) | relative viability (Palbociclib + Crizotinib; first compound 0.1 µM) | relative viability (Palbociclib + Crizotinib; first compound 0.3162 µM) | relative viability (Palbociclib + Crizotinib; first compound 1 µM) | relative viability (Palbociclib + Pictilisib; first compound 0.01 µM) | relative viability (Palbociclib + Pictilisib; first compound 0.03162 µM) | relative viability (Palbociclib + Pictilisib; first compound 0.1 µM) | relative viability (Palbociclib + Pictilisib; first compound 0.3162 µM) | relative viability (Palbociclib + Pictilisib; first compound 1 µM) | relative viability (Palbociclib + Alpelisib; first compound 0.01 µM) | relative viability (Palbociclib + Alpelisib; first compound 0.03162 µM) | relative viability (Palbociclib + Alpelisib; first compound 0.1 µM) | relative viability (Palbociclib + Alpelisib; first compound 0.3162 µM) | relative viability (Palbociclib + Alpelisib; first compound 1 µM) |
| --- | --- | --- | --- | --- | --- | --- | --- | --- | --- | --- | --- | --- | --- | --- | --- | --- | --- | --- | --- | --- |
| NCI-H322M | 1.27 | 1.07 | 1.07 | 1.01 | 0.785 | 0.949 | 0.883 | 0.858 | 0.813 | 0.697 | 0.474 | 0.495 | 0.459 | 0.393 | 0.34 | 0.805 | 0.895 | 0.689 | 0.676 | 0.496 |
| NCI-H441 | – | 0.365 | 0.446 | 0.558 | 0.367 | 0.685 | 0.593 | 0.474 | 0.546 | 0.433 | 0.559 | 0.317 | 0.406 | 0.304 | 0.191 | – | 0.635 | 0.677 | 0.426 | 0.418 |
| NCI-H460 | 1.11 | 0.937 | 0.909 | 0.745 | 0.172 | 0.938 | 0.781 | 0.581 | 0.582 | 0.205 | 0.465 | 0.302 | 0.268 | 0.318 | 0.182 | 0.476 | 0.413 | 0.275 | 0.217 | 0.0996 |
| NCI-H520 | 0.496 | 0.496 | 0.35 | 0.403 | 0.236 | 0.748 | 0.551 | 0.648 | 0.641 | 0.337 | 0.283 | 0.201 | 0.229 | 0.213 | 0.229 | 0.855 | 0.749 | 0.503 | 0.552 | 0.431 |
| NCI-H596 | 1.06 | 0.984 | 0.998 | 1.01 | 1.04 | 0.98 | 0.905 | 0.986 | 1.05 | 0.973 | 0.379 | 0.422 | 0.385 | 0.397 | 0.387 | 0.555 | 0.462 | 0.498 | 0.477 | 0.525 |
| NCI-H647 | 0.963 | 0.814 | 0.696 | 0.851 | 0.472 | 0.947 | 0.809 | 0.759 | 0.735 | 0.462 | 0.423 | – | 0.275 | 0.307 | 0.278 | 1.33 | 0.986 | 0.979 | 1.02 | 0.532 |
| NCI-H650 | 0.912 | – | 0.61 | 0.637 | 0.377 | 0.619 | – | 0.446 | 0.58 | 0.475 | 1.02 | – | 0.364 | 0.659 | 0.489 | 1.24 | – | 0.79 | 0.775 | 0.624 |
| NCI-H661 | 0.874 | 0.584 | 0.588 | 0.649 | 0.521 | 0.957 | 0.779 | 0.674 | 0.694 | 0.556 | 0.407 | 0.409 | 0.379 | 0.3 | 0.251 | 0.92 | 0.686 | 0.583 | 0.382 | 0.508 |
| NCI-H727 | 0.963 | 0.649 | 0.491 | 0.465 | 0.469 | 0.78 | 0.642 | 0.45 | 0.41 | 0.404 | 0.401 | 0.287 | 0.258 | 0.318 | 0.239 | 0.579 | 0.425 | 0.348 | 0.335 | 0.326 |
| NCI-H838 | 0.725 | 0.8 | 0.67 | 0.694 | 0.275 | 0.795 | 0.808 | 0.645 | 0.551 | 0.413 | 0.393 | 0.329 | 0.307 | 0.348 | 0.197 | 1.03 | 0.918 | 0.829 | 0.883 | 0.441 |
| NCI-H1299 | 1 | 0.871 | 0.925 | 0.873 | 0.72 | 0.938 | 0.895 | 0.86 | 0.7 | 0.631 | 0.762 | 0.486 | 0.541 | 0.347 | 0.259 | 1 | 1.02 | 0.949 | 0.956 | 0.865 |
| NCI-H1355 | 1.14 | – | 1.17 | 1.01 | 0.723 | 1.13 | – | 0.886 | 0.875 | 0.682 | 0.449 | – | 0.23 | 0.273 | 0.241 | 0.823 | – | 0.797 | 0.779 | 0.501 |
| NCI-H1437 | 0.525 | 0.533 | 0.442 | 0.408 | 0.318 | 1.05 | 0.855 | 0.807 | 0.782 | 0.506 | 0.424 | 0.38 | 0.366 | 0.317 | 0.162 | 0.946 | 1.06 | 0.857 | 0.889 | 0.48 |
| NCI-H1563 | 0.824 | 0.98 | 0.869 | 0.796 | 0.577 | 0.852 | 0.832 | 0.813 | 0.759 | 0.67 | 0.668 | 0.614 | 0.555 | 0.618 | 0.613 | 0.896 | 0.887 | 0.897 | 0.808 | 0.765 |
| NCI-H1651 | 1 | 0.9 | 0.981 | 0.915 | 0.8 | 0.895 | 0.864 | 0.869 | 0.808 | 0.79 | 0.573 | 0.524 | 0.499 | 0.529 | 0.355 | 1.03 | 0.823 | 0.875 | 0.883 | 0.624 |
| NCI-H1666 | 0.924 | 0.787 | 0.709 | 0.599 | 0.429 | 1.09 | 0.895 | 0.632 | 0.552 | 0.621 | 0.477 | 0.386 | 0.345 | 0.297 | 0.277 | 0.976 | 0.765 | 0.792 | 0.611 | 0.443 |
| NCI-H1703 | 0.266 | 0.23 | 0.197 | 0.226 | 0.188 | 0.845 | – | 0.513 | 0.505 | 0.227 | 0.225 | 0.211 | 0.242 | 0.252 | 0.21 | 0.298 | 0.346 | 0.301 | 0.231 | 0.182 |
